Reference: US20240199546A1, “INHIBITORS OF SOLUTE CARRIER FAMILY 6A MEMBER 19 (SLC6A19) AND METHODS OF USE THEREOF” (Maze Therapeutics, Inc., priority 2022, published 2024)

Molecular target: T1, human SLC6A19 and TMEM27 (Homo sapiens, UniProt Q695T7)
T1 construct: expressed in transfected cells
T1 sequence (Q695T7 1-634): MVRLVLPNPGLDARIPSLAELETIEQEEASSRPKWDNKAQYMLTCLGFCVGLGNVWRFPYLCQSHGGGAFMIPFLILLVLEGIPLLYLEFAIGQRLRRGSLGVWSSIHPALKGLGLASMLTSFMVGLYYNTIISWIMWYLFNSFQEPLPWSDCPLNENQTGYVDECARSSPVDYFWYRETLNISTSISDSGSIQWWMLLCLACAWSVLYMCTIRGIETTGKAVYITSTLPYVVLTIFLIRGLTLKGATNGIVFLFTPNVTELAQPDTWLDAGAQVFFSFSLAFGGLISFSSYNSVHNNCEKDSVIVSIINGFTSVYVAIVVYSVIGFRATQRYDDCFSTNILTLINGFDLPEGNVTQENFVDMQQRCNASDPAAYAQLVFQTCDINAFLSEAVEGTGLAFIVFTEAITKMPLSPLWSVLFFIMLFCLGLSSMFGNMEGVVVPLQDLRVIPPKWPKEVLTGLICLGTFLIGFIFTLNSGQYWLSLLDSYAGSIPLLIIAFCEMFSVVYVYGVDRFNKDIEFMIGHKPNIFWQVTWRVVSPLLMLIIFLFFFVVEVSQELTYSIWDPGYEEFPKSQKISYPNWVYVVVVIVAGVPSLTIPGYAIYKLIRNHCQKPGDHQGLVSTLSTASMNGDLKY
T1 sequence (Q9HBJ8 15-222 partner): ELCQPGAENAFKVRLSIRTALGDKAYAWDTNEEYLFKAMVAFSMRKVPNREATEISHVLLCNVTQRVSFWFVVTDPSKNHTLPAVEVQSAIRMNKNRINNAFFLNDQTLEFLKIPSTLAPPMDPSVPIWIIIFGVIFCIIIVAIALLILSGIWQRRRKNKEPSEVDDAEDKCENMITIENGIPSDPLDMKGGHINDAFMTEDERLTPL
Assay: Radiolabelled (3H) leucine uptake in CHO cells with doxycycline-inducible expression of human SLC6A19 and TMEM27 (Example B-1)
Format: cell-based
Conditions: CHO cells with doxycycline-inducible expression of human SLC6A19 and TMEM27, read-out: SLC6A19_Radioligand Uptake Assay IC50
Description: The flasks were then incubated (humidified, 37° C. with 5% CO2) for 2 minutes. After incubation, 10 mL of pre-warmed cell culture media was added to each flask. The cell suspension was collected and centrifuged for 5 minutes at 200×g. The supernatant was aspirated and the pellet was resuspended in 5 mL pre-warmed cell culture media. The resuspended cells were counted using the Countess Cell Counting Chamber (Invitrogen) and the cell concentration of the suspension was readjusted to 1 million live cells/mL using pre-warmed cell culture media. […] Assay plates were then incubated (humidified, 37° C. with 5% CO2) for 18 hours. After incubation, the media was aspirated and the wells were washed 4 times with pre-warmed HBSS (Sigma-Aldrich, H8264-1L) using an Apricot S-Pipette S2 (Apricot Designs), such that 5 uL/well HBSS was remaining at the end of each wash. […] At this step, the final in-well DMSO concentration in the assay plate is 0.5%. All compounds were plated in a duplicate 8-point dilution series that consisted of 3-fold dilutions. The plates were incubated with compound (humidified, 37° C. with 5% CO2) for 1 hour. […] The plates were then incubated (humidified, 37° C. with 5% CO2) on a plate shaker at 200 rpm for 2 hours. After incubation, the plates were removed from the shaker and kept at room temperature for 15 minutes. Liquid scintillation analysis was performed using the MicroBeta2 Microplate Counter (Perkin Elmer). Activity (%) was derived by normalizing the average of positive control compound treated wells to 0% and the average of DMSO (negative control) wells to 100%. Collaborative Drug Discovery software was used for graphing data.

| Structure (SMILES) | IC50 |
| --- | --- |
| Cc1cc(COc2cc3[nH]c(CNC(=O)[C@@H]4CCC[C@@H]4O)cc3cc2Cl)on1 (racemic) [Compound 573, (1R,2S)-N-((5-chloro-6-((3-methylisoxazol-5-yl)methoxy)-1H-indol-2-yl)methyl)-2-hydroxycyclopentane-1-carboxamide and (1S,2R)-N-((5-chloro-6-((3-methylisoxazol-5-yl)methoxy)-1H-indol-2-yl)methyl)-2-hydroxycyclopentane-1-carboxamide] | 1390 nM |
| Cc1cc(COc2cc3[nH]c(CNC(=O)C4CCN(C)C4=O)cc3cc2Cl)on1 (racemic) [Compound 574, (R)-N-((5-chloro-6-((3-methylisoxazol-5-yl)methoxy)-1H-indol-2-yl)methyl)-1-methyl-2-oxopyrrolidine-3-carboxamide and (S)-N-((5-chloro-6-((3-methylisoxazol-5-yl)methoxy)-1H-indol-2-yl)methyl)-1-methyl-2-oxopyrrolidine-3-carboxamide] | 3600 nM |
| Cc1cc(COc2cc3[nH]c(CNC(=O)N4CCC4C(F)F)cc3cc2Cl)on1 (racemic) [Compound 581, (S)-N-((5-chloro-6-((3-methylisoxazol-5-yl)methoxy)-1H-indol-2-yl)methyl)-2-(difluoromethyl)azetidine-1-carboxamide and (R)-N-((5-chloro-6-((3-methylisoxazol-5-yl)methoxy)-1H-indol-2-yl)methyl)-2-(difluoromethyl)azetidine-1-carboxamide] | 657 nM |
| O=C(NCc1cc2cc(Cl)c(OCc3cscn3)cc2[nH]1)C(F)CF (racemic) [Compound 639, N-((5-chloro-6-(thiazol-4-ylmethoxy)-1H-indol-2-yl)methyl)-2,3-difluoropropanamide] | 112 nM |
| CC1(C(=O)NCc2cc3cc(C4CC4(F)F)c(OCc4ccon4)cc3[nH]2)CC1 (racemic) [Compound 658, N-((5-(2,2-difluorocyclopropyl)-6-(isoxazol-3-ylmethoxy)-1H-indol-2-yl)methyl)-1-methylcyclopropane-1-carboxamide] | 590 nM |
| CN1CCC1C(=O)NCc1cc2cc(Cl)c(OCc3cscn3)cc2[nH]1 (racemic) [Compound 669, N-((5-chloro-6-(thiazol-4-ylmethoxy)-1H-indol-2-yl)methyl)-1-methylazetidine-2-carboxamide] | 3880 nM |
| CC(F)C(=O)NCc1cc2cc(Cl)c(OCc3cscn3)cc2[nH]1 (single isomer, unassigned) [Compound 443, (S or R)-N-((5-chloro-6-(thiazol-4-ylmethoxy)-1H-indol-2-yl)methyl)-2-fluoropropanamide] | 64.2 nM |
| CC(F)C(=O)NCc1cc2cc(Cl)c(OCc3cscn3)cc2[nH]1 (single isomer, unassigned) [Compound 444, (R or S)-N-((5-chloro-6-(thiazol-4-ylmethoxy)-1H-indol-2-yl)methyl)-2-fluoropropanamide] | 77.4 nM |
| Cc1cc(COc2cc3[nH]c(CNC(=O)C(C)C#N)cc3cc2Cl)on1 (single isomer, unassigned) [Compound 446, (R or S)-N-((5-chloro-6-((3-methylisoxazol-5-yl)methoxy)-1H-indol-2-yl)methyl)-2-cyanopropanamide] | 221 nM |
| Cc1cc(COc2cc3[nH]c(CNC(=O)C(C)C#N)cc3cc2Cl)on1 (single isomer, unassigned) [Compound 447, (S or R)-N-((5-chloro-6-((3-methylisoxazol-5-yl)methoxy)-1H-indol-2-yl)methyl)-2-cyanopropanamide] | 208 nM |
| CC1(C(=O)NCc2cc3c(F)c(Cl)c(OCc4ccon4)cc3[nH]2)CC1 [Compound 15, N-((5-chloro-4-fluoro-6-(isoxazol-3-ylmethoxy)-1H-indol-2-yl)methyl)-1-methylcyclopropane-1-carboxamide] | 363 nM |
| CC1(C(=O)NCc2cc3cc(Cl)c(OCc4ccon4)c(F)c3[nH]2)CC1 [Compound 16, N-((5-chloro-7-fluoro-6-(isoxazol-3-ylmethoxy)-1H-indol-2-yl)methyl)-1-methylcyclopropane-1-carboxamide] | 172 nM |
| CC1(C(=O)NCc2cc3c(F)c(Cl)c(OCc4cscn4)cc3[nH]2)CC1 [Compound 17, N-((5-chloro-4-fluoro-6-(thiazol-4-ylmethoxy)-1H-indol-2-yl)methyl)-1-methylcyclopropane-1-carboxamide] | 362 nM |
| CC1(C(=O)NCc2cc3ccc(OCc4cscn4)c(F)c3[nH]2)CC1 [Compound 19, N-((7-fluoro-6-(thiazol-4-ylmethoxy)-1H-indol-2-yl)methyl)-1-methylcyclopropane-1-carboxamide] | 341 nM |
| Cc1ccc(COc2cc3[nH]c(CNC(=O)C4(C)CC4)cc3cc2Cl)nc1 [Compound 21, N-((5-chloro-6-((5-methylpyridin-2-yl)methoxy)-1H-indol-2-yl)methyl)-1-methylcyclopropane-1-carboxamide] | 532 nM |
| Cc1ccnc(COc2cc3[nH]c(CNC(=O)C4(C)CC4)cc3cc2Cl)c1 [Compound 22, N-((5-chloro-6-((4-methylpyridin-2-yl)methoxy)-1H-indol-2-yl)methyl)-1-methylcyclopropane-1-carboxamide] | 2240 nM |
| CC1(C(=O)NCc2cc3cc(Cl)c(OCc4cc(F)ccn4)cc3[nH]2)CC1 [Compound 35, N-((5-chloro-6-((4-fluoropyridin-2-yl)methoxy)-1H-indol-2-yl)methyl)-1-methylcyclopropane-1-carboxamide] | 902 nM |
| CCc1cc2cc(CNC(=O)C3(C)CC3)[nH]c2cc1OCc1ccon1 [Compound 61, N-((5-ethyl-6-(isoxazol-3-ylmethoxy)-1H-indol-2-yl)methyl)-1-methylcyclopropane-1-carboxamide] | 297 nM |
| Cc1coc(COc2cc3[nH]c(CNC(=O)C4(C)CC4)cc3cc2Cl)n1 [Compound 71, N-((5-chloro-6-((4-methyloxazol-2-yl)methoxy)-1H-indol-2-yl)methyl)-1-methylcyclopropane-1-carboxamide] | 111 nM |
| CC1(C(=O)NCc2cc3cc(F)c(OCc4cc(C(F)(F)F)on4)cc3[nH]2)CC1 [Compound 72, N-((5-fluoro-6-((5-(trifluoromethyl)isoxazol-3-yl)methoxy)-1H-indol-2-yl)methyl)-1-methylcyclopropane-1-carboxamide] | 1240 nM |
| Cc1cnc(COc2cc3[nH]c(CNC(=O)C4(C)CC4)cc3cc2F)o1 [Compound 73, N-((5-fluoro-6-((5-methyloxazol-2-yl)methoxy)-1H-indol-2-yl)methyl)-1-methylcyclopropane-1-carboxamide] | 1470 nM |
| O=C(NCc1cc2cc(Cl)c(OCc3ccon3)cc2[nH]1)N1CCC1 [Compound 79, N-((5-chloro-6-(isoxazol-3-ylmethoxy)-1H-indol-2-yl)methyl)azetidine-1-carboxamide] | 272 nM |
| CC1CN(C(=O)NCc2cc3cc(Cl)c(OCc4cscn4)cc3[nH]2)C1 [Compound 80, N-((5-chloro-6-(thiazol-4-ylmethoxy)-1H-indol-2-yl)methyl)-3-methylazetidine-1-carboxamide] | 350 nM |
| O=C(NCc1cc2cc(Cl)c(OCc3ccon3)cc2[nH]1)N1CCOCC1 [Compound 84, N-((5-chloro-6-(isoxazol-3-ylmethoxy)-1H-indol-2-yl)methyl)morpholine-4-carboxamide] | 690 nM |
| O=C(NCc1cc2cc(Cl)c(OCc3ccon3)cc2[nH]1)N1CCCCC1 [Compound 85, N-((5-chloro-6-(isoxazol-3-ylmethoxy)-1H-indol-2-yl)methyl)piperidine-1-carboxamide] | 402 nM |
| CC1CCCN1C(=O)NCc1cc2cc(Cl)c(OCc3ccon3)cc2[nH]1 (centres unmarked) [Compound 86, N-((5-chloro-6-(isoxazol-3-ylmethoxy)-1H-indol-2-yl)methyl)-2-methylpyrrolidine-1-carboxamide] | 490 nM |
